Values quoted from earlier work, collected in patent US20090048237A1 (priority 2007, published 2009).
Where two headings read alike, the source gives them in different places.

Key:
[1] = human, in vivo
[2] = 0.2 mg/kg sublingual versus 0.2 mg/kg nasal, children
[3] = not given; remark: listed apart in the source
[4] = 125 mcg and 250 mcg
[5] = in vivo
[6] = 200 mcg sublingual
[7] = sublingual Halcion tablets
[8] = children

| Compound | children who had not previously cried that cried on administration [1] | patients who experienced nasal irritation [1] | children with satisfactory sedation at 15 min after administration (0.25 mg/kg under the tongue) | children with satisfactory sedation at 15 min after administration (0.5 mg/kg under the tongue) | children with satisfactory sedation at 15 min after administration (0.75 mg/kg under the tongue) | midazolam level 30 min after premedication [2] | patients with complete drug dissolution within 10 min ([3]; 7.5 mg sublingual tablet) | sedation scores ([3]; 7.5 mg sublingual versus oral, 30 and 60 min after administration) | sedation and psychomotor performance, elderly versus young persons at the same dose [4] | tablet dissolution time [5] | depth of sedation versus 10 mg oral diazepam [6] | time after administration at which sedation developed ([6]; 61-70 year old patients) | tablet dissolution after dosing [7] | average sublingual tablet dissolution [8] |
| --- | --- | --- | --- | --- | --- | --- | --- | --- | --- | --- | --- | --- | --- | --- |
| Cc1ncc2n1-c1ccc(Cl)cc1C(c1ccccc1F)=NC2 [Midazolam, 8-chloro-6-(2-fluorophenyl)-1-methyl-4H-imidazo[1,5-a][1,4]benzodiazepine] | 71% | 20 | 28% | 52% | 64% | statistically significantly higher than in the nasal group | 72% | higher than in the oral group | – | – | – | – | – | – |
| Cc1nnc2n1-c1ccc(Cl)cc1C(c1ccccc1Cl)=NC2 [Triazolam, 8-chloro-6-(o-chlorophenyl)-1-methyl-4H-s-triazolo-[4,3-alpha][1,4]benzodiazepine] | – | – | – | – | – | – | – | – | greater degree of sedation and greater impairment of psychomotor performance | ≤ 90 s | deeper sedation | 60 to 90 min | 2 to 3 min | 4 min |
